Laboratory results: patent US20120065267A1, “COMPOSITIONS INCLUDING 3,5-L-T2 AND METHODS OF USE THEREOF” (priority 2010, published 2012)
“And” between values parts separate entries of the source, which are not always exact repeats. Equal values may be shown once.

What was measured:
[1] = system: C57, LDLr+/− and LDLr0 mice; experiment: Serum triglycerides in mice on Western Diet given daily oral T2; type: in vivo; design: Triglycerides / Triglycerides (Ave): unit not given here
Method: (§1) This corresponds to a dosage for an 80 kg human of about 20-200 mg/day, or a low dose of about 0.2-0.3 mg/kg of body weight to a high dose of about 2-3 mg/kg of body weight. One will appreciate, however, that some subjects (e.g., subjects having very low LDL receptor function) may receive higher doses, depending on need. likewise, some subjects may receive lower doses, which again depends on need. Mice in the study were fed a standard lab chow referred to as the “Western Diet.” The overall level of fat and the saturated nature of the fat are representative diets typical in the industrialized west that are linked to risk of cardiovascular disease in humans. The formula is used primarily with genetically manipulated rodent models that are susceptible to high cholesterol and cardiovascular disease. The diet may also be useful in diet-induced obesity, diabetes, and metabolic syndrome models. High cholesterol, obesity, and diabetes are each associated increased risk for cardiovascular disease. The composition of the Western Diet is shown below. C57 is a wild-type strain, LDLr+/− are a strain carrying one functional copy of the LDLr gene, and the LDLr0 animals are total LDLr knockouts. The LDLr gene encodes for the LDL receptor protein, which is responsible for scavenging LDL with bound cholesterol from the blood and transporting it into cells. Both heterozygous and homozygous LDLr knockout animals develop very high serum cholesterol levels and are considered to be a good model for heterozygous and homozygous familial hypercholesterolemia in humans. […] LDLr knockout animals have zero LDL receptor function.

[2] = Body weight of mice on Western Diet given low or high dose T2; type: in vivo
Method: as §1

N[C@@H](Cc1cc(I)c(Oc2ccc(O)cc2)c(I)c1)C(=O)O [T2, (2S)-2-amino-3-[4-(4-hydroxyphenoxy)-3,5-diiodophenyl]propanoic acid]
Triglycerides (Ave) ([1]; C57 mice, 1 Week High Dose, T2 2.5 mg/kg daily oral, group average): 55.8
Triglycerides ([1]; C57 mice, 1 Week High Dose, T2 2.5 mg/kg daily oral, individual animal, 2.5 mg/kg): 42.161 and 68.02 and 45.486 and 50.657 and 72.822
Triglycerides (Ave) ([1]; C57 mice, 1 Week Low Dose, T2 0.25 mg/kg daily oral, group average): 29.5
Triglycerides ([1]; C57 mice, 1 Week Low Dose, T2 0.25 mg/kg daily oral, individual animal, 0.25 mg/kg): 24.835 and 29.673 and 13.299 and 36.371 and 43.441
Triglycerides (Ave) ([1]; LDLr0 mice (first group), 1 Week High Dose, T2 2.5 mg/kg daily oral, group average): 192.1
Triglycerides ([1]; LDLr0 mice (first group), 1 Week High Dose, T2 2.5 mg/kg daily oral, individual animal, 2.5 mg/kg): 173.672 and 210.614
Triglycerides (Ave) ([1]; LDLr0 mice (first group), 1 Week Low Dose, T2 0.25 mg/kg daily oral, group average): 183.0
Triglycerides ([1]; LDLr0 mice (first group), 1 Week Low Dose, T2 0.25 mg/kg daily oral, individual animal, 0.25 mg/kg): 230.244 and 106.329 and 212.382
Triglycerides (Ave) ([1]; LDLr0 mice (second group), 1 Week Low Dose, T2 0.25 mg/kg daily oral, group average): 236.2
Triglycerides ([1]; LDLr0 mice (second group), 1 Week Low Dose, T2 0.25 mg/kg daily oral, individual animal, 0.25 mg/kg): 183.413 and 260.001 and 239.273 and 268.082 and 244.895 and 177.441 and 263.163 and 252.975
Triglycerides (Ave) ([1]; LDLr0 mice (second group), 2 Week High Dose (as headed), daily oral T2, group average): 356.5
Triglycerides ([1]; LDLr0 mice (second group), 2 Week High Dose (as headed), daily oral T2, individual animal): 225.895 and 274.993 and 402.246 and 281.673 and 462.031 and 223.557 and 485.745 and 496.099
Triglycerides (Ave) ([1]; LDLr+/− mice, 1 Week High Dose, T2 2.5 mg/kg daily oral, group average): 52.1
Triglycerides ([1]; LDLr+/− mice, 1 Week High Dose, T2 2.5 mg/kg daily oral, individual animal, 2.5 mg/kg): 40.683 and 35.511 and 62.848 and 68.389 and 37.359 and 68.02
Triglycerides (Ave) ([1]; LDLr+/− mice, 1 Week Low Dose, T2 0.25 mg/kg daily oral, group average): 31.4
Triglycerides ([1]; LDLr+/− mice, 1 Week Low Dose, T2 0.25 mg/kg daily oral, individual animal, 0.25 mg/kg): 12.927 and 34.138 and 40.464 and 29.673 and 31.161 and 40.092
effect on serum triglyceride levels ([1]; low and high dose T2, all genotypes): did not affect
Body weight (Ave) ([2]; C57 mice, High Dose T2 2.5 mg/kg daily oral, Day 1, group average): 28.1 g
Body weight ([2]; C57 mice, High Dose T2 2.5 mg/kg daily oral, Day 1, individual animal, 2.5 mg/kg): 29.6 (2×) and 24.9 and 29.8 and 26.7
Body weight (Ave) ([2]; C57 mice, High Dose T2 2.5 mg/kg daily oral, Day 2, group average): 28.4 g
Body weight ([2]; C57 mice, High Dose T2 2.5 mg/kg daily oral, Day 2, individual animal, 2.5 mg/kg, in g (unit assumed)): 29.5 and 30.1 and 25.8 and 29.7 and 27.1
Body weight (Ave) ([2]; C57 mice, High Dose T2 2.5 mg/kg daily oral, Day 3, group average): 28.4 g
Body weight ([2]; C57 mice, High Dose T2 2.5 mg/kg daily oral, Day 3, individual animal, 2.5 mg/kg, in g (unit assumed)): 29.8 and 30.0 and 25.1 and 29.9 and 27.2
Body weight (Ave) ([2]; C57 mice, High Dose T2 2.5 mg/kg daily oral, Day 4, group average): 27.4 g
Body weight ([2]; C57 mice, High Dose T2 2.5 mg/kg daily oral, Day 4, individual animal, 2.5 mg/kg, in g (unit assumed)): 29.1 and 28.7 and 23.4 and 28.8 and 27
Body weight (Ave) ([2]; C57 mice, High Dose T2 2.5 mg/kg daily oral, Day 5, group average): 27.7 g
Body weight ([2]; C57 mice, High Dose T2 2.5 mg/kg daily oral, Day 5, individual animal, 2.5 mg/kg, in g (unit assumed)): 29.7 and 29.1 and 24.1 and 28.5 and 27.3
Body weight (Ave) ([2]; C57 mice, Low Dose T2 0.25 mg/kg daily oral, Day 1, group average): 25.2 g
Body weight ([2]; C57 mice, Low Dose T2 0.25 mg/kg daily oral, Day 1, individual animal, 0.25 mg/kg, in g (unit assumed)): 26.5 and 27.0 and 23.0 and 26.4 and 24.0 and 24.1
Body weight (Ave) ([2]; C57 mice, Low Dose T2 0.25 mg/kg daily oral, Day 2, group average): 26.1 g
Body weight ([2]; C57 mice, Low Dose T2 0.25 mg/kg daily oral, Day 2, individual animal, 0.25 mg/kg, in g (unit assumed)): 28.2 and 27.7 and 24.1 and 26.3 and 25.5 and 24.9
Body weight (Ave) ([2]; C57 mice, Low Dose T2 0.25 mg/kg daily oral, Day 3, group average): 26.5 g
Body weight ([2]; C57 mice, Low Dose T2 0.25 mg/kg daily oral, Day 3, individual animal, 0.25 mg/kg, in g (unit assumed)): 28.3 and 27.8 and 23.3 and 27.9 and 26.2 and 25.6
Body weight (Ave) ([2]; C57 mice, Low Dose T2 0.25 mg/kg daily oral, Day 4, group average): 25.8 g
Body weight ([2]; C57 mice, Low Dose T2 0.25 mg/kg daily oral, Day 4, individual animal, 0.25 mg/kg, in g (unit assumed)): 26.8 and 27.2 and 23.7 and 26.7 and 25.1 and 25.4
Body weight (Ave) ([2]; C57 mice, Low Dose T2 0.25 mg/kg daily oral, Day 5, group average): 26.8 g
Body weight ([2]; C57 mice, Low Dose T2 0.25 mg/kg daily oral, Day 5, individual animal, 0.25 mg/kg, in g (unit assumed)): 27.3 and 28.3 and 24.5 and 27.5 and 26.4
Body weight (Ave) ([2]; C57 mice, Low Dose T2 0.25 mg/kg daily oral, Day 6, group average): 27.5 g
Body weight ([2]; C57 mice, Low Dose T2 0.25 mg/kg daily oral, Day 6, individual animal, 0.25 mg/kg, in g (unit assumed)): 28.1 and 29.9 and 24.8 and 28.7 and 26.1
Body weight (Ave) ([2]; C57 mice, Low Dose T2 0.25 mg/kg daily oral, Day 7, group average): 28.3 g
Body weight ([2]; C57 mice, Low Dose T2 0.25 mg/kg daily oral, Day 7, individual animal, 0.25 mg/kg, in g (unit assumed)): 29.5 and 30.7 and 26.2 and 29.0 and 26.1
Body weight (Ave) ([2]; LDLr0 mice, High Dose T2 2.5 mg/kg daily oral, Day 1, group average): 25.7 g
Body weight ([2]; LDLr0 mice, High Dose T2 2.5 mg/kg daily oral, Day 1, individual animal, 2.5 mg/kg, in g (unit assumed)): 23.9 and 27.4
Body weight (Ave) ([2]; LDLr0 mice, High Dose T2 2.5 mg/kg daily oral, Day 2, group average): 24 g
Body weight ([2]; LDLr0 mice, High Dose T2 2.5 mg/kg daily oral, Day 2, individual animal, 2.5 mg/kg, in g (unit assumed)): 23.1 and 24.8
Body weight (Ave) ([2]; LDLr0 mice, High Dose T2 2.5 mg/kg daily oral, Day 3, group average): 23.9 g
Body weight ([2]; LDLr0 mice, High Dose T2 2.5 mg/kg daily oral, Day 3, individual animal, 2.5 mg/kg, in g (unit assumed)): 22.8 and 24.9
Body weight (Ave) ([2]; LDLr0 mice, High Dose T2 2.5 mg/kg daily oral, Day 4, group average): 24.2 g
Body weight ([2]; LDLr0 mice, High Dose T2 2.5 mg/kg daily oral, Day 4, individual animal, 2.5 mg/kg, in g (unit assumed)): 23.5 and 24.8
Body weight (Ave) ([2]; LDLr0 mice, High Dose T2 2.5 mg/kg daily oral, Day 5, group average): 24.2 g
Body weight ([2]; LDLr0 mice, High Dose T2 2.5 mg/kg daily oral, Day 5, individual animal, 2.5 mg/kg, in g (unit assumed)): 23.1 and 25.3
Body weight (Ave) ([2]; LDLr0 mice, Low Dose T2 0.25 mg/kg daily oral, Day 1, group average): 22.3 g
Body weight ([2]; LDLr0 mice, Low Dose T2 0.25 mg/kg daily oral, Day 1, individual animal, 0.25 mg/kg, in g (unit assumed)): 23.1 and 21.1 and 22.7 and 22.1
Body weight (Ave) ([2]; LDLr0 mice, Low Dose T2 0.25 mg/kg daily oral, Day 2, group average): 22.8 g
Body weight ([2]; LDLr0 mice, Low Dose T2 0.25 mg/kg daily oral, Day 2, individual animal, 0.25 mg/kg, in g (unit assumed)): 21.6 and 23.6 and 23.2
Body weight (Ave) ([2]; LDLr0 mice, Low Dose T2 0.25 mg/kg daily oral, Day 3, group average): 23.4 g
Body weight ([2]; LDLr0 mice, Low Dose T2 0.25 mg/kg daily oral, Day 3, individual animal, 0.25 mg/kg, in g (unit assumed)): 22.3 and 24.4 and 23.5
Body weight (Ave) ([2]; LDLr0 mice, Low Dose T2 0.25 mg/kg daily oral, Day 4, group average): 22.3 g
Body weight ([2]; LDLr0 mice, Low Dose T2 0.25 mg/kg daily oral, Day 4, individual animal, 0.25 mg/kg, in g (unit assumed)): 21.2 and 22.9 and 22.8
